Biological target: C-Raf FL (Homo sapiens (Human), UniProt P04049, Y340E/Y341E)
Test: In vitro Raf activity determination (Alpha Screen, phospho-MEK), C-Raf FL (full length, Y340E/Y341E)
Format: biochemical
Conditions: ATP 1 μM; 60 min pre-incubation; 1 hour reaction; column head does not say FL or TR
Description: The activity of a compound according to the present invention can be assessed by well-known in vitro & in vivo methods. Raf inhibition data provided herein was obtained using the following procedures.
Sf9 cells co-expressing both proteins were lysed and subjected to immobilized nickel chromatography and eluted with Imidazole. A second column (StrepII binding column) was used and eluted with desthiobiotin. Protein Tags were removed using Prescission enzyme and the protein was further purified using a flowthrough step to remove tags.
C-Raf TR refers to a truncated C-Raf protein, a Δ1-324 deletion mutant. C-Raf FL refers to the full-length C-Raf protein.
Full length MEK1 with an inactivating K97R ATP binding site mutation is utilized as a RAF substrate. The MEK1 cDNA was subcloned with an N-terminal (his)6 tag into a vector for E. Coli expression. The MEK1 substrate was purified from E. Coli lysate by nickel affinity chromatography followed by anion exchange. The final MEK1 preparation was biotinylated (Pierce EZ-Link Sulfo-NHS-LC-Biotin) and concentrated.
Assay protocol: Raf and biotinylated Mek (kinase dead) were combined at 2× final concentrations in assay buffer (50 mM Tris, pH 7.5, 15 mM MgCl2, 0.01% BSA and 1 mM DTT) and dispensed […] per well in assay plates (Greiner white 384 well assay plates #781207) containing […] of 40× of a Raf kinase inhibitor test compound diluted in 100% DMSO. The plate was incubated for 60 minutes at room temperature. […] The reactions were stopped and the phosphorylated product was measured using a rabbit anti-p-MEK (Cell Signaling, #9121) antibody and the Alpha Screen IgG (ProteinA) detection Kit (PerkinElmer #6760617R), by the addition of […] to the well of a mixture of the antibody (1:2000 dilution) and detection beads (1:2000 dilution of both beads) in Stop/bead buffer (25 mM EDTA, 50 mM Tris, pH 7.5, 0.01% Tween20). The additions were carried out under dark conditions to protect the detection beads from light. A lid was placed on top of the plate and incubated for 1 hour at room temperature, after which the luminescence was read on a PerkinElmer Envision instrument. The concentration of each compound for 50% inhibition (IC50) was calculated by non-linear regression using XL Fit data analysis software.

Chain of C-Raf FL (P04049 whole entry Y340E/Y341E): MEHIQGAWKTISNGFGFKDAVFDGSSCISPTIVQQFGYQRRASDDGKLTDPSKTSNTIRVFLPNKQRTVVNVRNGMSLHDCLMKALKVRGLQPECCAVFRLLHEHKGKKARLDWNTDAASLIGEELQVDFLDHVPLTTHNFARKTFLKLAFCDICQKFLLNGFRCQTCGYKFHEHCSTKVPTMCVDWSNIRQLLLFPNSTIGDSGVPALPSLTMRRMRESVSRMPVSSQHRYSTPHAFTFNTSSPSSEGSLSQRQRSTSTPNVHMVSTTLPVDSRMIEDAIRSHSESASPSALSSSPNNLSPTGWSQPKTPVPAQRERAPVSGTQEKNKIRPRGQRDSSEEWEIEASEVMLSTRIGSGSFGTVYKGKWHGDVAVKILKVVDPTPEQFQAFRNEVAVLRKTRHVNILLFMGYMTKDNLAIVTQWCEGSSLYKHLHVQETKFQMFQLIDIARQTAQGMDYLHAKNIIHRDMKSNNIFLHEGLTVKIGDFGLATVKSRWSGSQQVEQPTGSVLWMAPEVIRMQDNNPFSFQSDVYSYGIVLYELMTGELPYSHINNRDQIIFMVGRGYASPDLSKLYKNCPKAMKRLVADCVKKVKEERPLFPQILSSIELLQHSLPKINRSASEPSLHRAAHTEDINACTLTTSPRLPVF
Chain of C-Raf FL (P63104 whole entry partner): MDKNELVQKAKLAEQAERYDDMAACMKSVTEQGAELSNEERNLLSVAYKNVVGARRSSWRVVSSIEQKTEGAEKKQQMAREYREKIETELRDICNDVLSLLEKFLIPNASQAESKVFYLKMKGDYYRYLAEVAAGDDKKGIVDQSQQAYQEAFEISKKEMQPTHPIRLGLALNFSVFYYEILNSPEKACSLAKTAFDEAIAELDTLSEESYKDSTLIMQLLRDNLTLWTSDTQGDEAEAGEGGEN

| SMILES | IC50 [nM] |
| --- | --- |
| Cc1ccc(NC(=O)c2cc(C(F)(F)F)ccn2)cc1-c1cc2c(c(C3CCOCC3)c1)NC(=O)C(C)(CO)O2 (single isomer, unassigned) [Example 193, N-(3-(2-(hydroxymethyl)-2-methyl-3-oxo-5-(tetrahydro-2H-pyran-4-yl)-3,4-dihydro-2H-benzo [b][1,4]oxazin-7-yl)-4-methylphenyl)-4-(trifluoromethyl) picolinamide carboxamide] | 0.02 |
| Cc1ccc(NC(=O)c2cc(C(F)(F)F)ccn2)cc1-c1cc2c(c(C3CCOCC3)c1)NC(=O)C(C)(CO)O2 (single isomer, unassigned) [Example 194, N-(3-(2-(hydroxymethyl)-2-methyl-3-oxo-5-(tetrahydro-2H-pyran-4-yl)-3,4-dihydro-2H-benzo [b][1,4]oxazin-7-yl)-4-methylphenyl)-4-(trifluoromethyl) picolinamide carboxamide] | 0.07 |
| Cc1ccc(NC(=O)c2cc(C(F)(F)F)ccn2)cc1-c1cc(OCCO)nc(C2CCOCC2O)c1 (single isomer, unassigned) [Example 248] | 0.7 |
| Cc1ccc(NC(=O)c2ccnc(C(F)(F)F)c2)cc1-c1cc(OCCO)nc(C2CCOCC2O)c1 (single isomer, unassigned) [Example 250] | 1 |
| Cc1ncc(NC(=O)c2ccnc(C(C)(C)F)c2)cc1-c1cccc(C2COC2)c1 [Example 1, 2-(2-fluoropropan-2-yl)-N-(6-methyl-5-(3-(oxetan-3-yl)phenyl)pyridin-3-yl)isonicotinamide] | 1 |
| Cc1ccc(NC(=O)c2cccc(C(F)(F)F)c2)cc1-c1cccc(C2COC2)c1 [Example 2, N-(6-methyl-3′-(oxetan-3-yl)-[1,1′-biphenyl]-3-yl)-3-(trifluoromethyl)benzamide] | 0.7 |
| CCOc1ncc(-c2cc(NC(=O)c3ccnc(C(C)(C)F)c3)cnc2C)cc1C1(C)COC1 [Example 3, N-(6′-ethoxy-2-methyl-5′-(3-methyloxetan-3-yl)-[3,3′-bipyridin]-5-yl)-2-(2-fluoropropan-2-yl)isonicotinamide] | 0.5 |
| Cc1ccc(NC(=O)c2cccc(C(F)(F)F)c2)cc1-c1cn(C)c(=O)c(C2COC2)n1 [Example 4, N-(4-methyl-3-(4-methyl-6-(oxetan-3-yl)-5-oxo-4,5-dihydropyrazin-2-yl)phenyl)-3-(trifluoromethyl)benzamide] | 3 |
| Cc1ccc(NC(=O)c2ccc(CN)c(C(F)(F)F)c2)cc1-c1cccc(C2COC2)c1 [Example 5, 4-(aminomethyl)-N-(6-methyl-3′-(oxetan-3-yl)-[1,1′-biphenyl]-3-yl)-3-(trifluoromethyl)benzamide] | 2 |
| Cc1ccc(NC(=O)c2cccc(C(F)(F)F)c2)cc1-c1cc(C2COC2)c2nccn2n1 [Example 6, N-(4-methyl-3-(8-(oxetan-3-yl)imidazo[1,2-b]pyridazin-6-yl)phenyl)-3-(trifluoromethyl)benzamide] | 0.3 |
| Cc1ncc(NC(=O)c2ccc(CO)c(C(F)(F)F)c2)cc1-c1cccc(C2COC2)c1 [Example 7] | 1 |
| Cc1ncc(NC(=O)c2ccc(CN)c(C(F)(F)F)c2)cc1-c1cccc(C2(C)COC2)c1 [Example 8] | 1 |
| Cc1ncc(NC(=O)c2cccc(C(F)(F)F)c2)cc1-c1cc(C2COC2)c2nccn2n1 [Example 9, N-(6-methyl-5-(8-(oxetan-3-yl)imidazo[1,2-b]pyridazin-6-yl)pyridin-3-yl)-3-(trifluoromethyl)benzamide] | 0.3 |
| Cc1ncc(NC(=O)c2ccc(CN)c(C(F)(F)F)c2)cc1-c1cc(C2COC2)c2nccn2n1 [Example 10, 4-(aminomethyl)-N-(6-methyl-5-(8-(oxetan-3-yl)imidazo[1,2-b]pyridazin-6-yl)pyridin-3-yl)-3-(trifluoromethyl)benzamide] | 2 |
| Cc1ncc(NC(=O)c2cccc(C(F)(F)F)c2)cc1-c1cc(C2(C)COC2)c(OC2CCOCC2)nn1 [Example 11] | 0.6 |
| Cc1ccc(NC(=O)c2ccnc(C(C)(F)F)c2)cc1-c1cnc(-c2cn(C)nc2C)c(C2(O)COC2)c1 [Example 12, 2-(1,1-difluoroethyl)-N-(3-(6-(1,3-dimethyl-1H-pyrazol-4-yl)-5-(3-hydroxyoxetan-3-yl)pyridin-3-yl)-4-methylphenyl)isonicotinamide] | 2 |
| Cc1ccc(NC(=O)c2ccnc(C(C)(F)F)c2)cc1-c1c[nH]c(=O)c(C2(O)COC2)c1 [Example 13, 2-(1,1-difluoroethyl)-N-(3-(5-(3-hydroxyoxetan-3-yl)-6-oxo-1,6-dihydropyridin-3-yl)-4-methylphenyl)isonicotinamide] | 1 |
| Cc1ccc(NC(=O)c2ccnc(C(F)(F)F)c2)cc1-c1cc(C2(C)COC2)c(OCCO)nn1 [Example 14, N-(3-(6-(2-hydroxyethoxy)-5-(3-methyloxetan-3-yl)pyridazin-3-yl)-4-methylphenyl)-2-(trifluoromethyl)isonicotinamide] | 0.2 |
| Cc1ncc(NC(=O)c2cccc(C(F)(F)F)c2)cc1-c1cc(C2(C)COC2)c(=O)[nH]n1 [Example 15, N-(6-methyl-5-(5-(3-methyloxetan-3-yl)-6-oxo-1,6-dihydropyridazin-3-yl)pyridin-3-yl)-3-(trifluoromethyl)benzamide] | 1 |
| Cc1ncc(NC(=O)c2cccc(C(F)(F)F)c2)cc1-c1cc(C2(C)COC2)c(OCCO)nn1 [Example 16, N-(5-(6-(2-hydroxyethoxy)-5-(3-methyloxetan-3-yl)pyridazin-3-yl)-6-methylpyridin-3-yl)-3-(trifluoromethyl)benzamide] | 0.4 |
| COc1ncc(-c2cc(C(=O)Nc3ccnc(C(F)(F)F)c3)ccc2C)cc1C1(O)COC1 [Example 17, 3-(5-(3-hydroxyoxetan-3-yl)-6-methoxypyridin-3-yl)-4-methyl-N-(2-(trifluoromethyl)pyridin-4-yl)benzamide] | 0.7 |
| COc1ncc(-c2cc(C(=O)Nc3cccc(C(F)F)c3)ccc2C)cc1C1(O)COC1 [Example 18, N-(3-(difluoromethyl)phenyl)-3-(5-(3-hydroxyoxetan-3-yl)-6-methoxypyridin-3-yl)-4-methylbenzamide] | 0.6 |
| COc1ncc(-c2cc(NC(=O)c3cc(C(F)(F)F)cc(C(C)(C)N)n3)ccc2C)cc1C1(O)COC1 [Example 19, 6-(2-aminopropan-2-yl)-N-(3-(5-(3-hydroxyoxetan-3-yl)-6-methoxypyridin-3-yl)-4-methylphenyl)-4-(trifluoromethyl)picolinamide] | 7 |
| CCOc1ncc(-c2cc(NC(=O)c3ccnc(C(C)(C)F)c3)cnc2C)cc1C1(CF)COC1 [Example 32, N-(6′-ethoxy-5′-(3-(fluoromethyl)oxetan-3-yl)-2-methyl-[3,3′-bipyridin]-5-yl)-2-(2-fluoropropan-2-yl)isonicotinamide] | 0.3 |
| Cc1ncc(NC(=O)c2ccnc(C(C)(C)F)c2)cc1-c1cnc(OCCO)c(C2(F)COC2)c1 [Example 40, N-(5′-(3-fluorooxetan-3-yl)-6′-(2-hydroxyethoxy)-2-methyl-[3,3′-bipyridin]-5-yl)-2-(2-fluoropropan-2-yl)isonicotinamide] | 3.47 |
| Cc1ccc(NC(=O)c2ccnc(C(C)(C)F)c2)cc1-c1cnc(OCCO)c(C2(F)COC2)c1 [Example 41, N-(3-(5-(3-fluorooxetan-3-yl)-6-(2-hydroxyethoxy)pyridin-3-yl)-4-methylphenyl)-2-(2-fluoropropan-2-yl)isonicotinamide] | 0.245 |
| Cc1ncc(NC(=O)c2cccc(C(F)(F)F)c2)cc1-c1cc(C2(F)COC2)c(=O)n(CCO)c1 [Example 46, N-(5′-(3-fluorooxetan-3-yl)-1′-(2-hydroxyethyl)-2-methyl-6′-oxo-1′,6′-dihydro-[3,3′-bipyridin]-5-yl)-3-(trifluoromethyl)benzamide] | 51.5 |
| Cc1ccc(NC(=O)c2ccnc(C(F)(F)F)c2)cc1-c1cc(C2(F)COC2)cc(OCCO)n1 [Example 47, N-(3-(4-(3-fluorooxetan-3-yl)-6-(2-hydroxyethoxy)pyridin-2-yl)-4-methylphenyl)-2-(trifluoromethyl)isonicotin-amide] | 4.35 |
| Cc1ncc(NC(=O)c2ccnc(C(C)(C)F)c2)cc1-c1cc(C2(F)COC2)cc(OCCO)n1 [Example 48] | 7.53 |
| Cc1ncc(NC(=O)c2ccnc(C(C)(C)F)c2)cc1-c1cc(OCCO)nc(C2(F)COC2)c1 [Example 50, N-(2′-(3-fluorooxetan-3-yl)-6′-(2-hydroxyethoxy)-2-methyl-[3,4′-bipyridin]-5-yl)-2-(2-fluoropropan-2-yl)isonicotinamide] | 3.29 |

Reference: patent US10167279B2 (NOVARTIS AG, priority 2014, dated 2019)
